In assay [1] the test system is CD8+ T cells from people without HIV. Put plainly: In vitro reprogramming of bulk CD8+ T cells, phenotype without further stimulation. Type of assay: cell-based, human. The protocol:
FIG. 1. Induction of stem-like CD8^+ T cells with high survival capacity and polyfunctionality by in vitro reprogramming. A. CD8^+ T cells from people without HIV were incubated with medium, vehicle control, or a GSK3 inhibitor, for 12 hs and the phenotype was evaluated by flow cytometry. A representative donor from a total of 4 is shown. B. Frequencies of CD8^+ T cell subpopulations after each treatment. C. Fold change of CD8^+ T cell subpopulations after treatment with vehicle control or a GSK3 inhibitor, relative to medium alone condition (n=4). D. Expression of TCF-1 in CD8^+ T cell subpopulations (n=4). E. The expression of the indicated markers in cells pre-treated with vehicle control or a GSK3 inhibitor was evaluated by flow cytometry. The fold change in the expression induced by 48 hs anti-CD3/CD28 stimulation, relative to unstimulated cells, is shown (n=5). F. Left: Flow cytometry analysis of dead cells (Aqua Live/Dead^+) among total and T-bet+CD8^+ T cells. Right: Fold change in dead CD8^+ T cells induced by anti-CD3/CD28 stimulation, relative to the unstimulated condition (n=5). G. Frequencies of granzyme B^+, TL-2^+, IFN-γ^+, and TNF-α^+CD8^+ T cells after anti-CD3/CD28 stimulation. H. Expression of 1 to 4 functions in CD8^+ T cells after anti-CD3/CD28 stimulation (n=5). I. After reprogramming with the GSK3 inhibitor, CD8^+ T cells were stimulated for 48 hs with anti-CD3/CD28, followed by wash and resting for 5 days. Then, cells were restimulated for another 48 hs with anti-CD3/CD28. Left: Flow cytometry analysis of proliferating (CFSE dilution) CD8^+ T cells. Right: Frequencies of CD8^+ T cells with 0, 1-3 or ≥4 cell divisions (n=9). J. Frequency of the total HCMV pp65-specific CD8^+ T cell response (IFN-γ^+ or CD107a^+ or TNF-α^+), after vehicle control or GSK3 inhibitor treatment, followed by HCMV pp65 peptides stimulation for 6 hs (n=6). K. Frequencies of CD8^+ T cell subpopulations among HCMV pp65-specific CD8^+ T cells (n=6). L. Expression of IFN-γ, CD107a, and TNF-α in HCMV pp65-specific CD8^+ T cells (n=6). M. Frequency of the total HCMV pp65-specific CD8^+ T cell response after HCMV pp65 peptides stimulation for 6 days (n=6). *P<0.05; **P≤0.01. NS: Not statistically significant. TSCM: Stem cell memory; TCM: Central memory; TTM: Transitional memory; TEM: Effector memory; TTE: Terminal effector.
FIG. 2. A. Flow cytometry gating strategy used to identify CD8^+ T cell subpopulations: Naïve, Stem cell memory (TSCM), Central memory (TCM), Transitional memory (TTM), Effector memory (TEM), and Terminal effector (TTE). B. Expression of CCR7, CD27 and TCF-1 in total CD8^+ T cells after treatment with vehicle control, or the GSK3 inhibitors BIO or TWS119, for 12 hs. The median fluorescence intensity of each marker is depicted. C. Fold change in TSCM, TCM and TEM cells induced by BIO or TWS119, relative to vehicle control (n=3 people without HIV). D. Fold change in T-bet^+ cells among TSCM and TCM induced by anti-CD3/CD28 stimulation, relative to vehicle control, in cells previously treated with vehicle control, BIO or TWS119 (n=3). E. Fold change in T-bet^+ cells among naïve/TSCM induced by anti-CD3/CD28 stimulation (0.2 and 1 μg/mL), relative to unstimulated cells, previous treatment with vehicle control or the GSK3 inhibitor (n=3). F. Fold change in T-bet^+ cells among each CD8^+ T cell subpopulation induced by anti-CD3/CD28+ICAM-1 stimulation, relative to unstimulated cells (n=5). G. Frequency of IL-2^+TNF-α^+ cells among each CD8^+ T cell subpopulation after anti-CD3/CD28+ICAM-1 stimulation (n=5). H. Correlation between the frequency of PD-1^+LAG-3^+TIM3^+TIGIT^+CD8^+ T cells and the proportion of CD8^+ T cells with ≥4 cell divisions after restimulation (n=6). I. After reprogramming with the GSK3 inhibitor, CD8^+ T cells were left unstimulated, stimulated once for 48 hs with anti-CD3/CD28, or stimulated twice with anti-CD3/CD28. The expression of T-bet in TCM and TTM cells is shown (n=5). *P<0.05. […]

A further assay concerns GSK3. To be noted: cited from earlier work.
Where [2] appears, read: BIO and TWS119 in parallel, 3 μM, 12 hs, FIG. 2C.

Take `O=C1Nc2cc(Br)ccc2/C1=C1/Nc2ccccc2/C1=N\O` [BIO, 6-bromoindirubin-3′-oxime]: the “expression of TCF-1” value in assay [1] (3 μM, 12 hs, FIG. 1D) was “enhanced expression”. Also, in assay [1] (3 μM, 12 hs, FIGS. 1A-C), the “CD8+ T cells with stem cell memory (TSCM) and central memory (TCM) phenotype” value is “enrichment”; the “effector memory (TEM) and terminal effector (TTE) cells” value was “decrease”. Moreover, the “surface expression of CCR7 and CD27” value in assay [1] (3 μM, 12 hs, absence of further stimulation, FIG. 1A) was “upregulation”. The “CCR7, CD27, and TCF-1” value in assay [1] (BIO and TWS119 in parallel, 3 μM, 12 hs, FIG. 2B) was “induced”. Besides, in assay [1] (setting [2]), the TEM cells entry is given as “decrease”; the “TSCM and TCM cells” value is on record as “increase”. For the same compound, the “effect compared between the two GSK3 inhibitors” value in assay [1] (FIGS. 2B and C) was “greater effect than TWS119”. In addition, in the assay with GSK3 (Meijer L et al., 2003), the beta-catenin phosphorylation result is “reduces” and the “phosphorylation on Tyr276/216 GSK3a/p activation site” value is recorded as “inhibits”. For the same compound, the Wnt/β-catenin/TCF-1 pathway entry in the assay with GSK3 (reference 42) was “induce the activation”.

Source of the values: US20250108070A1, “METHOD FOR REPROGRAMMING CD8+ T CELLS TO ENHANCE THEIR THERAPEUTIC POTENTIAL AND APPLICATIONS THEREOF” (INSTITUT PASTEUR, priority 2022, published 2025).
